Experimental data: article PMC8922758, “A new therapeutic approach for bone metastasis in colorectal cancer: intratumoral melittin” (The Journal of Venomous Animals and Toxins Including …, 2022)

Assays:
[1] = test system: HT-29 human colorectal cancer cells; assay: MTT cytotoxicity assay; assay type: cell-based; settings: 48 h incubation
Method: Human CRC (HT-29) was purchased from the European Collection of Authenticated Cell Cultures. It was thawed and propagated in […] flasks at 37 °C in a 5% CO2 humidified chamber (HeraCELL 150) in Dulbecco's modified Eagle's medium (DMEM; Sigma D-5648, São Paulo, Brazil) supplemented with 100 mM sodium pyruvate (Gibco, Thermo Fisher Scientific, Waltham, Massachusetts, USA), 10% fetal bovine serum (FBS) (Gibco, Fisher Scientific, Waltham, Massachusetts, USA), and 1% antibiotics (100 U/mL penicillin and 10 mg/mL streptomycin, Gibco). Cells were detached using 0.25% trypsin-EDTA (Gibco, Fisher Scientific, Waltham, Massachusetts, USA) at 37 °C for 3 min. DMEM plus 10% FBS was used to block the trypsin. The cell pellet was transferred to a new 75 cm^3 flask containing 10 mL DMEM. The culture medium was changed every 24 h. Cell viability was evaluated in the Neubauer chamber using Trypan Blue.
To check the viability, the culture fluid is removed and 5 × 10^5cells per well were treated with melittin (0.0625, 0.125, 0.25, 0.5, 1.0, 2.0, 35 and 70 µM). After 48 h of incubation, MTT (3-(4,5-dimethylthiazol-2-yl)-2,5-diphenyltetrazolium bromide) 0.5 mg/mL was added to each well and incubated at 37 °C for 4 h to determine the number of living cells. […] Then, the optical density was detected by a microplate reader at a wavelength of 540 nm (EPOCH, BioTech Instrument Inc., Winooski, VT, USA). […]

[2] = test system: HT-29 CRC bone metastasis xenograft; assay: Histopathological analysis of the metastasis; assay type: in vivo, Balb/c-nu mice; settings: H&E
Excerpt: After the anesthetic procedure by the parenteral anesthetic drug overdose, the animals were euthanized. The tumor was then resected entirely for anatomopathological analysis. The external surface of the sample was inspected. The opened and cleaned specimens were immersed in formalin overnight for fixation and embedded in paraffin. Metastasis was sliced to assess bone invasion. Tumor 3 µm sections were stained with hematoxylin-eosin and subjected to optical microscopy. Metastasis diagnosis and histological features were determined.

[3] = Animal follow up: signs of toxicity, body weight, organ histopathology; assay type: in vivo, Balb/c-nu mice
Method: Signals of suffering and toxicity were carefully observed daily. The following general behaviors were observed: low activity, appetite loss, personality changes, immobility, social isolation, urine and feces consistency changes, lack of personal hygiene, and self-mutilation. Specific to mice, weight loss, dehydration, piloerection, and screams when touched were evaluated.
Moreover, immediately after euthanized, liver, kidneys, and heart were removed from the animals for histopathological analysis, which was conducted with the same method described above.

[4] = Mass spectrometry characterisation (aggregation state); assay type: physicochemical; settings: LC-MS, Q-Exactive Plus, C18, before application in the animals
Excerpt: The purity and identity were confirmed by mass spectrometry using a Q-Exactive Plus (Thermo Fisher Scientific, Waltham, Massachusetts, USA). The peptide was inserted into a C18 column (EASY-Spray™ LC Columns, Thermo Fisher Scientific, Waltham, Massachusetts, USA) coupled to a liquid chromatography binary system (EASY-nLC 1,200, Thermo Scientific, Waltham, Massachusetts, USA) and eluted with a gradient of 5%-80% of solvent A (water containing 0.1% formic acid) and B (90% acetonitrile containing 0.1% formic acid) with a constant flow of 100 nL/min. The eluted was automatically inserted in the mass spectrometer, operating in positive mode, in MS mode of a full scan of 300-1500 m/z.

[5] = test system: HT-29 CRC bone metastasis xenograft; assay: Bone metastasis in colorectal cancer mouse model, metastasis volume after intrametastatic injection; assay type: in vivo, Balb/c-nu mice
Method: Six-week-old Balb/c-nu male mice (n = 9), weighing 23,76 ± 3,11 g, from Charles River Laboratories International Inc. (Wilmington, USA) were housed in individual ventilated racks. All animals were kept under controlled light conditions (12 h light/12 dark cycles), temperature (23 ± 1 °C), humidity (40%-60%), water, and feed ad libitum.
The procedures were performed in a laminar flow with rigorous asepsis and antisepsis techniques. On day 0, to perform the cell inoculation, mice were anesthetized with xylazine hydrochloride 2% plus ketamine, diluted 1:2 (0.3 mL/20 g), and administered via intramuscular injection. Briefly, cells were suspended in 40 μL of saline. A percutaneous 45° puncture was performed. Bone scarification was performed with the bevel of the hypodermic needle carefully to avoid transfixing the skullcap. Then, without needle exchange, cells (4 × 10^6 cells) were injected over the periosteal in the parietal region using a 1 mL syringe and 36G caliber hypodermic needle.
After xenograft, the animals were monitored daily. Metastasis was verified and measured every day. In case of signs, the animal is euthanized immediately. Metal calipers checked the volume. The growth curves were determined using the formula: Volume = L × S^2/2, where "S" is the smallest diameter measured and "L" is the largest diameter measured.
After the tumor reached 100 mm^3 (by the 19th day after xenograft), the animals were randomized into groups:
After anesthesia, 1,5 mg/kg single dose of melittin was injected in the metastasis with a sterile syringe, as deep as possible, without trespassing the tumor. Without removing the needle, 50 µL of solution was applied slowly for a homogenous distribution into the metastasis, equally distributed (10 µL) in the center and cardinal points. After the administration, the needle remained in the metastasis for 20 seconds before being slowly removed to avoid extravasation.

[6] = cited from earlier work
Excerpt: The peptide inhibited approximately 50% of the growth of metastasis. […] In a recent paper melittin could be detected in patients up to 30 days after envenomation, clearly indicating bioaccumulation corroborating the effects of the single-dose treatment. Besides, melittin has the ability to improves sy ...

With `CC[C@H](C)[C@H](NC(=O)CN)C(=O)NCC(=O)N[C@@H](C)C(=O)N[C@H](C(=O)N[C@@H](CC(C)C)C(=O)N[C@@H](CCCCN)C(=O)N[C@H](C(=O)N[C@@H](CC(C)C)C(=O)N[C@H](C(=O)N[C@H](C(=O)NCC(=O)N[C@@H](CC(C)C)C(=O)N1CCC[C@H]1C(=O)N[C@@H](C)C(=O)N[C@@H](CC(C)C)C(=O)N[C@H](C(=O)N[C@@H](CO)C(=O)N[C@@H](Cc1c[nH]c2ccccc12)C(=O)N[C@H](C(=O)N[C@@H](CCCCN)C(=O)N[C@@H](CCCNC(=N)N)C(=O)N[C@@H](CCCCN)C(=O)N[C@@H](CCCNC(=N)N)C(=O)N[C@@H](CCC(N)=O)C(=O)N[C@@H](CCC(N)=O)C(N)=O)[C@@H](C)CC)[C@@H](C)CC)[C@@H](C)O)[C@@H](C)O)C(C)C)C(C)C` [melittin] the “maximum inhibition of HT-29 proliferation” value ([1]; 2 µM, mean of triplicates) was 80%, the “decrease of the initial HT-29 cell number” value ([1]; 0.0625-70 µM, triplicates) was “about 20%” and the “microscopy of treated metastasis, mitosis rate” value ([2]; melittin-treated animals n = 6) was “low mitosis rate”. For the same compound, the “microscopy of treated metastasis, tumor cells” value ([2]; last experimental day (day 27), n = 6) was “necrosis and absence of tumor cells”, the “death or severe toxicity signs” value ([3]; after intrametastatic treatment, 1,5 mg/kg single dose) was “no death or severe toxicity signs” and the signs of envenomation ([3]; daily observation after 1,5 mg/kg single intrametastatic dose) was “did not show signs of envenomation”. For the same compound, the “local reaction at injection site” value ([3]; day 20, the day after intrametastatic injection of 1,5 mg/kg) was “local inflammation”, the “histopathological analysis of liver, kidney and heart” value ([3]; day 27, seven days after single dose, H&E) was “no signals of toxicity” and the “body weight versus untreated animals” value ([3]; three days after administration, p < 0.01, n = 6 vs n = 3) was “greater weight loss than those untreated”. For the same compound, the “aggregation state by mass spectrometry” value [4] was “monomeric structure without aggregation”, the “inhibition of growing metastasis” value ([5]; 1,5 mg/kg single intrametastatic dose on day 19, 2 days after the treatment, n = 6 vs untreated n = 3, p < 0.001) was “approximately 50%” and the metastasis reduction ([5]; after a single intrametastatic dose, 1,5 mg/kg) was 53%. The metastasis regrowth ([5]; seven days after single-dose injection) was “metastases started growing again” and the “time melittin is detectable in patients after envenomation” value [6] was “up to 30 days”.
